Source: ChEMBL document CHEMBL1201862, “PubChem BioAssay data set” (2004)
Several values for one entry are separate records, joined by “and”; a condition that tells them apart may be missing. Identical values can stand only once.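 48-hour exposure; five concentrations; linearly interpolated endpoints. Here, GI50 denotes the concentration required for 50% inhibition of growth.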 Activity calls are given as the source filed them. Cut-off read from the data, not from the text of the source: active = GI50 up to about 1.1 µM and inactive = higher.

Legend:
Assay in all cases: NCI tumour cell line growth inhibition, 48 h
[1] = system: HOP-18
[2] = system: SK-MEL-2
[3] = system: SF-539
[4] = system: MCF7
[5] = system: M14
[6] = system: KM12
[7] = system: SF-295
[8] = system: DLD-1
[9] = system: BT-549
[10] = system: PC-3
[11] = system: Hs-578T
[12] = system: IGROV-1
[13] = system: EKVX
[14] = system: HT-29
[15] = system: HL-60
[16] = system: HCT-116
[17] = system: RXF 393
[18] = system: SK-OV-3
[19] = system: SN12C
[20] = system: T47D
[21] = system: Malme-3M
[22] = system: OVCAR-5
[23] = system: 786-0
[24] = system: DU-145
[25] = system: COLO 205
[26] = system: NCI/ADR-RES
[27] = system: CAKI-1
[28] = system: U-251
[29] = system: OVCAR-8
[30] = system: NCI-H226
[31] = system: MDA-MB-435
[32] = system: HCC 2998
[33] = system: MDA-N
[34] = system: NCI-H460
[35] = system: NCI-H23
[36] = system: HOP-62
[37] = system: DMS-273
[38] = system: SR
[39] = system: UO-31
[40] = system: LOX IMVI
[41] = system: DMS-114
[42] = system: HOP-92
[43] = system: OVCAR-3
[44] = system: XF498
[45] = system: M19-MEL
[46] = system: MDA-MB-231
[47] = system: UACC-62
[48] = system: KM-20L2
[49] = system: SNB-19
[50] = system: OVCAR-4
[51] = system: SNB-78
[52] = system: TK-10
[53] = system: RPMI-8226
[54] = system: K562
[55] = system: CCRF-CEM
[56] = system: SW-620
[57] = system: A549
[58] = system: UACC-257
[59] = system: NCI-H522
[60] = system: RXF 631
[61] = system: SF-268
[62] = system: MOLT-4
[63] = system: A498
[64] = system: SK-MEL-28
[65] = system: HCT-15
[66] = system: LXFL 529
[67] = system: SNB-75
[68] = system: SK-MEL-5
[69] = system: ACHN

SMILES: CC1CCC2(C(=O)O)CCC3(C)C(=CCC4C5(C)CCC(O)C(C)(C)C5CCC43C)C2C1C (centres undefined)
- GI50 [1]: 15.5 µM (inactive)
- GI50 [2]: 11.2 µM (inactive) and 15.9 µM (inactive)
- GI50 [3]: 13.4 µM (inactive) and 11 µM (inactive)
- GI50 [4]: 12.7 µM (inactive) and 22 µM (inactive)
- GI50 [5]: 2.16 µM (inactive)
- GI50 [6]: 6.62 µM (inactive) and 9.29 µM (inactive)
- GI50 [7]: 3.3 µM (inactive) and 3.22 µM (inactive)
- GI50 [8]: 6.53 µM (inactive)
- GI50 [9]: 19 µM (inactive)
- GI50 [10]: 15.8 µM (inactive)
- GI50 [11]: 8.71 µM (inactive)
- GI50 [12]: 13.4 µM (inactive) and 18.2 µM (inactive)
- GI50 [13]: 10.6 µM (inactive) and 13.8 µM (inactive)
- GI50 [14]: 20.7 µM (inactive) and 11 µM (inactive)
- GI50 [15]: 3.05 µM (inactive) and 2.64 µM (inactive)
- GI50 [16]: 14.4 µM (inactive) and 7.28 µM (inactive)
- GI50 [17]: 6.12 µM (inactive) and 11.4 µM (inactive)
- GI50 [18]: 18.2 µM (inactive) and 15.5 µM (inactive)
- GI50 [19]: 10.3 µM (inactive) and 18 µM (inactive)
- GI50 [20]: 14.2 µM (inactive)
- GI50 [21]: 15.1 µM (inactive) and 14 µM (inactive)
- GI50 [22]: 11.1 µM (inactive) and 10.6 µM (inactive)
- GI50 [23]: 4.63 µM (inactive)
- GI50 [24]: 9.16 µM (inactive)
- GI50 [25]: 13.7 µM (inactive) and 14.7 µM (inactive)
- GI50 [26]: 14.7 µM (inactive) and 11.2 µM (inactive)
- GI50 [27]: 6 µM (inactive) and 3.7 µM (inactive)
- GI50 [28]: 9.68 µM (inactive) and 17.8 µM (inactive)
- GI50 [29]: 13.8 µM (inactive) and 8.3 µM (inactive)
- GI50 [30]: 19.7 µM (inactive) and 11.1 µM (inactive)
- GI50 [31]: 30.1 µM (inactive)
- GI50 [32]: 11.1 µM (inactive) and 10.6 µM (inactive)
- GI50 [33]: 14.6 µM (inactive)
- GI50 [34]: 12.4 µM (inactive)
- GI50 [35]: 18.5 µM (inactive) and 11.9 µM (inactive)
- GI50 [36]: 16.5 µM (inactive) and 9.33 µM (inactive)
- GI50 [37]: 10.9 µM (inactive)
- GI50 [38]: 19.5 µM (inactive)
- GI50 [39]: 6.75 µM (inactive) and 4.07 µM (inactive)
- GI50 [40]: 4.13 µM (inactive) and 6.59 µM (inactive)
- GI50 [41]: 9.42 µM (inactive)
- GI50 [42]: 18.4 µM (inactive) and 11.9 µM (inactive)
- GI50 [43]: 7.52 µM (inactive) and 13.8 µM (inactive)
- GI50 [44]: 5.86 µM (inactive)
- GI50 [45]: 8.17 µM (inactive)
- GI50 [46]: 12.5 µM (inactive)
- GI50 [47]: 19.6 µM (inactive) and 10.8 µM (inactive)
- GI50 [48]: 8.24 µM (inactive)
- GI50 [49]: 10.3 µM (inactive)
- GI50 [50]: 17.3 µM (inactive) and 13.3 µM (inactive)
- GI50 [51]: 13.3 µM (inactive)
- GI50 [52]: 19.7 µM (inactive)
- GI50 [53]: 10.6 µM (inactive) and 7.1 µM (inactive)
- GI50 [54]: 3.84 µM (inactive)

SMILES: CN(C)c1ccc(/C=C(\NC(=O)c2ccccc2)c2nc3ccc4c(c3[nH]2)C(=O)c2ccccc2C4=O)cc1
- GI50 [2]: 61.8 µM (inactive)
- GI50 [55]: 0.966 µM (active)
- GI50 [3]: 36.5 µM (inactive)
- GI50 [5]: 53.8 µM (inactive)
- GI50 [6]: 5.19 µM (inactive)
- GI50 [56]: 33.2 µM (inactive)
- GI50 [7]: 46.6 µM (inactive)
- GI50 [8]: 9.48 µM (inactive)
- GI50 [12]: 11.4 µM (inactive)
- GI50 [13]: 48.1 µM (inactive)
- GI50 [14]: 69.3 µM (inactive)
- GI50 [16]: 20.9 µM (inactive)
- GI50 [17]: 18.9 µM (inactive)
- GI50 [18]: 39 µM (inactive)
- GI50 [19]: 34 µM (inactive)
- GI50 [21]: > 100 µM (inactive)
- GI50 [22]: > 100 µM (inactive)
- GI50 [23]: 25.4 µM (inactive)
- GI50 [57]: 20 µM (inactive)
- GI50 [25]: > 100 µM (inactive)
- GI50 [27]: 9.1 µM (inactive)
- GI50 [28]: 31.5 µM (inactive)
- GI50 [29]: 37.4 µM (inactive)
- GI50 [58]: > 100 µM (inactive)
- GI50 [59]: 8.79 µM (inactive)
- GI50 [32]: > 100 µM (inactive)
- GI50 [34]: 29.1 µM (inactive)
- GI50 [35]: 18.1 µM (inactive)
- GI50 [36]: 61.9 µM (inactive)
- GI50 [37]: 27.2 µM (inactive)
- GI50 [60]: 34.7 µM (inactive)
- GI50 [61]: 7.14 µM (inactive)
- GI50 [62]: 2.65 µM (inactive)
- GI50 [63]: 6.61 µM (inactive)
- GI50 [39]: 1.33 µM (inactive)
- GI50 [40]: 20.2 µM (inactive)
- GI50 [64]: 27.5 µM (inactive)
- GI50 [41]: 21.7 µM (inactive)
- GI50 [42]: 12.8 µM (inactive)
- GI50 [43]: 32.2 µM (inactive)
- GI50 [45]: > 100 µM (inactive)
- GI50 [47]: 35.8 µM (inactive)
- GI50 [48]: > 100 µM (inactive)
- GI50 [49]: > 100 µM (inactive)
- GI50 [65]: 34.1 µM
- GI50 [66]: 39.6 µM (inactive)
- GI50 [50]: 47.2 µM (inactive)
- GI50 [51]: 75.7 µM (inactive)
- GI50 [52]: 17.1 µM (inactive)
- GI50 [53]: 3.18 µM (inactive)
- GI50 [67]: 11 µM (inactive)
- GI50 [68]: 34.3 µM (inactive)
- GI50 [54]: 26.9 µM (inactive)

SMILES: NC(=O)CCC(N=C(N)c1csc(C2OC(CO)C(O)C2O)n1)C(=O)O (centres undefined)
- GI50 [1]: < 0.01 µM (active)
- GI50 [2]: > 100 µM (inactive)
- GI50 [55]: > 100 µM (inactive)
- GI50 [3]: > 100 µM (inactive)
- GI50 [5]: > 100 µM (inactive)
- GI50 [6]: > 100 µM (inactive)
- GI50 [69]: > 100 µM (inactive)
- GI50 [56]: > 100 µM (inactive)
- GI50 [7]: > 100 µM (inactive)
- GI50 [8]: > 100 µM (inactive)
- GI50 [12]: > 100 µM (inactive)
- GI50 [13]: > 100 µM (inactive)
- GI50 [14]: > 100 µM (inactive)
- GI50 [15]: > 100 µM (inactive)
- GI50 [17]: > 100 µM (inactive)
- GI50 [18]: > 100 µM (inactive)
- GI50 [19]: > 100 µM (inactive)
- GI50 [21]: > 100 µM (inactive)
- GI50 [22]: > 100 µM (inactive)
- GI50 [57]: > 100 µM (inactive)
- GI50 [25]: > 100 µM (inactive)
- GI50 [27]: > 100 µM (inactive)
- GI50 [28]: > 100 µM (inactive)
- GI50 [29]: > 100 µM (inactive)
- GI50 [58]: > 100 µM (inactive)
- GI50 [59]: > 100 µM (inactive)
- GI50 [32]: > 100 µM (inactive)
- GI50 [35]: > 100 µM (inactive)
- GI50 [37]: > 100 µM (inactive)
- GI50 [61]: > 100 µM (inactive)
- GI50 [62]: > 100 µM (inactive)
- GI50 [63]: > 100 µM (inactive)
- GI50 [40]: > 100 µM (inactive)
- GI50 [64]: > 100 µM (inactive)
- GI50 [41]: > 100 µM (inactive)
- GI50 [44]: > 100 µM (inactive)
- GI50 [47]: > 100 µM (inactive)
- GI50 [48]: > 100 µM (inactive)
- GI50 [65]: > 100 µM
- GI50 [66]: > 100 µM (inactive)
- GI50 [50]: > 100 µM (inactive)
- GI50 [51]: > 100 µM (inactive)
- GI50 [52]: > 100 µM (inactive)
- GI50 [53]: > 100 µM (inactive)
- GI50 [67]: > 100 µM (inactive)
- GI50 [68]: > 100 µM (inactive)
- GI50 [54]: > 100 µM (inactive)
